Experimental data as given in the supplement of paper PMC10307832.

Key:
Assay in all cases: relative viability (nuclei count vs DMSO), 5 days (fraction); higher = more cells survive
Seliciclib + Lapatinib = compound: CC[C@H](CO)Nc1nc(NCc2ccccc2)c2ncn(C(C)C)c2n1 [Seliciclib] + CS(=O)(=O)CCNCc1ccc(-c2ccc3ncnc(Nc4ccc(OCc5cccc(F)c5)c(Cl)c4)c3c2)o1 [Lapatinib] (partner 2 µM)
Outline: (§1)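 Lung cancer cell lines, seeded in 1536-well plates, were treated the following day by pin tool with a single drug or with five library-drug doses (not always all listed) in √10 steps on top of a fixed anchor-drug dose. Cells were fixed and nuclei stained in one step after 5 days, and nuclei were counted. Relative viability is the nuclei count for treated wells divided by that for vehicle wells, reported as medians of duplicate plates.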

Seliciclib + Luminespib = compound: CC[C@H](CO)Nc1nc(NCc2ccccc2)c2ncn(C(C)C)c2n1 [Seliciclib] + CCNC(=O)c1noc(-c2cc(C(C)C)c(O)cc2O)c1-c1ccc(CN2CCOCC2)cc1 [Luminespib] (partner 0.01 µM)
Outline: as §1

Seliciclib + Olaparib = compound: CC[C@H](CO)Nc1nc(NCc2ccccc2)c2ncn(C(C)C)c2n1 [Seliciclib] + O=C(c1cc(Cc2n[nH]c(=O)c3ccccc23)ccc1F)N1CCN(C(=O)C2CC2)CC1 [Olaparib] (partner 8 µM)
Outline: as §1

Seliciclib + Decitabine = compound: CC[C@H](CO)Nc1nc(NCc2ccccc2)c2ncn(C(C)C)c2n1 [Seliciclib] + Nc1ncn([C@H]2C[C@H](O)[C@@H](CO)O2)c(=O)n1 [Decitabine] (partner 2 µM)
Outline: as §1

| Cell Line | relative viability (Seliciclib + Lapatinib; first compound 0.08 µM) | relative viability (Seliciclib + Lapatinib; first compound 0.253 µM) | relative viability (Seliciclib + Lapatinib; first compound 0.8 µM) | relative viability (Seliciclib + Lapatinib; first compound 2.53 µM) | relative viability (Seliciclib + Lapatinib; first compound 8 µM) | relative viability (Seliciclib + Luminespib; first compound 0.08 µM) | relative viability (Seliciclib + Luminespib; first compound 0.253 µM) | relative viability (Seliciclib + Luminespib; first compound 0.8 µM) | relative viability (Seliciclib + Luminespib; first compound 2.53 µM) | relative viability (Seliciclib + Luminespib; first compound 8 µM) | relative viability (Seliciclib + Olaparib; first compound 0.08 µM) | relative viability (Seliciclib + Olaparib; first compound 0.253 µM) | relative viability (Seliciclib + Olaparib; first compound 0.8 µM) | relative viability (Seliciclib + Olaparib; first compound 2.53 µM) | relative viability (Seliciclib + Olaparib; first compound 8 µM) | relative viability (Seliciclib + Decitabine; first compound 0.08 µM) | relative viability (Seliciclib + Decitabine; first compound 0.253 µM) | relative viability (Seliciclib + Decitabine; first compound 0.8 µM) | relative viability (Seliciclib + Decitabine; first compound 2.53 µM) | relative viability (Seliciclib + Decitabine; first compound 8 µM) |
| --- | --- | --- | --- | --- | --- | --- | --- | --- | --- | --- | --- | --- | --- | --- | --- | --- | --- | --- | --- | --- |
| LXF-289 | 0.908 | 1.04 | 0.806 | 0.891 | 0.791 | 0.603 | 0.778 | 0.545 | 0.642 | 0.56 | 1.06 | 1.12 | 1.03 | 1.04 | 0.772 | 0.348 | 0.299 | 0.403 | 0.39 | 0.39 |
| UMC-11 | 1.02 | 0.981 | 1.09 | 0.96 | 0.824 | 0.963 | 0.78 | 1.09 | 1.06 | 0.829 | 0.367 | 0.388 | 0.381 | 0.352 | 0.293 | 0.542 | 0.392 | 0.612 | 0.606 | 0.526 |
| LC-2-ad | 0.948 | 1.15 | 0.895 | 0.829 | 0.857 | 0.895 | 1.02 | 0.988 | 0.985 | 0.834 | 0.64 | 0.759 | 0.681 | 0.794 | 0.638 | 0.752 | 0.95 | 0.717 | 0.812 | 0.721 |
| NCI-H2170 | 0.272 | 0.274 | 0.269 | 0.259 | 0.268 | 0.738 | 0.552 | 0.729 | 1.04 | 0.714 | 0.521 | – | 0.582 | 0.654 | 0.609 | 0.453 | – | 0.452 | 0.537 | 0.442 |
| A-427 | 1.03 | 1.08 | 1.13 | 1.02 | 1.01 | 0.905 | 0.744 | 0.926 | 0.873 | 0.902 | 0.79 | 0.714 | 0.712 | 0.617 | 0.639 | 0.606 | 0.521 | 0.612 | 0.52 | 0.589 |
| NCI-H322M | 0.67 | 0.641 | 0.509 | 0.443 | 0.457 | 0.855 | 0.883 | 0.794 | 0.786 | 0.809 | 0.722 | 0.969 | 0.561 | 0.758 | 0.749 | 0.782 | 0.715 | 0.715 | 0.668 | 0.614 |
| NCI-H1975 | 0.867 | 0.834 | 0.868 | 0.759 | 0.716 | 0.2 | 0.124 | 0.19 | 0.198 | 0.479 | 0.774 | 0.605 | 0.768 | 0.865 | 0.523 | 0.394 | 0.349 | 0.365 | 0.645 | 0.332 |
| NCI-H1437 | 0.824 | 0.949 | 0.882 | 0.777 | 0.618 | 0.999 | 1.2 | 1.05 | 1.05 | 0.809 | 0.641 | 0.665 | 0.595 | 0.607 | 0.431 | 0.557 | 0.563 | 0.566 | 0.477 | 0.56 |
